Experimental data taken from US10173971B2, “Picolinamides with fungicidal activity” (DOW AGROSCIENCES LLC, priority 2014, dated 2019).
Like-named read-outs stand apart in the source and are kept apart here.

Assays:
Zymoseptoria tritici = assay: Fungicidal activity: leaf blotch of wheat (SEPTTR), wheat seedlings, booth sprayer to run-off or track spray; format: in vivo; details: for pest or weed control at 100 ppm: High-Volume Cereal Activity at 100 ppm; for pest or weed control at 121.5 g/ha: Low-Volume Cereal Activity at 121.5 g/H
Method: All fungicides were evaluated using the aforementioned method for their activity vs. all target diseases. Wheat leaf blotch and brown rust activity were also evaluated using track spray applications, in which case the fungicides were formulated as EC formulations, containing 0.1% Trycol 5941 in the spray solutions. Wheat plants (variety Yuma) were grown from seed in a greenhouse in 50% mineral soil/50% soil-less Metro mix until the first leaf was fully emerged, with 7-10 seedlings per pot. These plants were inoculated with an aqueous spore suspension of Zymoseptoria tritici either prior to or after fungicide treatments. After inoculation the plants were kept in 100% relative humidity (one day in a dark dew chamber followed by two to three days in a lighted dew chamber at 20° C.) to permit spores to germinate and infect the leaf. The plants were then transferred to a greenhouse set at 20° C. for disease to develop. When disease symptoms were fully expressed on the 1st leaves of untreated plants, infection levels were assessed on a scale of 0 to 100 percent disease severity. Percent disease control was calculated using the ratio of disease severity on treated plants relative to untreated plants.

Puccinia triticina = assay: Fungicidal activity: wheat brown rust (PUCCRT), wheat seedlings, booth sprayer to run-off or track spray; format: in vivo; details: for pest or weed control at 100 ppm: High-Volume Cereal Activity at 100 ppm; for pest or weed control at 121.5 g/ha: Low-Volume Cereal Activity at 121.5 g/H
Method: All fungicides were evaluated using the aforementioned method for their activity vs. all target diseases. Wheat leaf blotch and brown rust activity were also evaluated using track spray applications, in which case the fungicides were formulated as EC formulations, containing 0.1% Trycol 5941 in the spray solutions. Wheat plants (variety Yuma) were grown from seed in a greenhouse in 50% mineral soil/50% soil-less Metro mix until the first leaf was fully emerged, with 7-10 seedlings per pot. These plants were inoculated with an aqueous spore suspension of Puccinia triticina either prior to or after fungicide treatments. […] The plants were then transferred to a greenhouse set at 24° C. for disease to develop. Fungicide formulation, application and disease assessment followed the procedures as described in the Example A.

[1] = 24 h, 1 Day Protectant, read-out: SEPTTR 1DP
[2] = 3DC (Day Curative), read-out: SEPTTR 3DC
[3] = 24 h, 1 Day Protectant, read-out: PUCCRT 1DP
[4] = 3DC (Day Curative), read-out: PUCCRT 3DC
[5] = 72 h, 3 Day Curative, read-out: SEPTTR 3DC
[6] = 72 h, 3 Day Curative, read-out: PUCCRT 3DC

| Structure (SMILES) | pest or weed control at 100 ppm (Zymoseptoria tritici; [1]) [%] | pest or weed control at 100 ppm (Zymoseptoria tritici; [2]) [%] | pest or weed control at 100 ppm (Puccinia triticina; [3]) [%] | pest or weed control at 100 ppm (Puccinia triticina; [4]) [%] | pest or weed control at 121.5 g/ha (Zymoseptoria tritici; [1]) [%] | pest or weed control at 121.5 g/ha (Zymoseptoria tritici; [5]) [%] | pest or weed control at 121.5 g/ha (Puccinia triticina; [3]) [%] | pest or weed control at 121.5 g/ha (Puccinia triticina; [6]) [%] |
| --- | --- | --- | --- | --- | --- | --- | --- | --- |
| CCCOC[C@@H](Cc1ccccc1)[C@H](C)OC(=O)[C@@H](C)NC(=O)c1nccc(OC)c1OCOC(C)=O [compound 166] | 0 to 80 | 0 to 80 | 80 to 100 | 80 to 100 |  |  |  |  |
| CCCOC[C@@H](Cc1ccccc1)[C@H](C)OC(=O)[C@H](CC)NC(=O)c1nccc(OC)c1OCOC(C)=O [compound 167] | 80 to 100 | 80 to 100 | 80 to 100 | 80 to 100 | 80 to 100 | 0 to 80 | 80 to 100 | 80 to 100 |
| CCCO[C@@H](CC)[C@@H](Cc1ccccc1)[C@H](C)OC(=O)[C@H](C)NC(=O)c1nccc(OC)c1OCOC(C)=O [compound 168] | 80 to 100 | 80 to 100 | 80 to 100 | 80 to 100 | 80 to 100 | 0 to 80 | 80 to 100 | 80 to 100 |
| CCCO[C@@H](CC)[C@@H](Cc1ccccc1)[C@H](C)OC(=O)C(C)(C)NC(=O)c1nccc(OC)c1OCOC(C)=O [compound 170] | 0 to 80 | 0 to 80 | 0 to 80 |  |  |  |  |  |
| CCCOC[C@@H](Cc1ccccc1)[C@H](C)OC(=O)C(C)(C)NC(=O)c1nccc(OC)c1OCOC(C)=O [compound 171] | 0 to 80 | 0 to 80 |  | 0 to 80 |  |  |  |  |
| CC[C@H](CCCc1ccccc1)[C@@H](CC(C)C)[C@H](C)OC(=O)C(C)NC(=O)c1nccc(OC)c1OC(C)=O (stereo partly drawn) [compound 172] |  |  |  |  | 0 to 80 | 0 to 80 | 80 to 100 | 0 to 80 |
| CC[C@H](CC1CC1)[C@@H](Cc1ccccc1)[C@H](C)OC(=O)[C@H](C)NC(=O)c1nccc(OC)c1OCOC(C)=O [compound 173] |  |  |  |  | 80 to 100 | 80 to 100 | 80 to 100 | 0 to 80 |
| CC[C@H](Cc1ccccc1)[C@@H](Cc1ccc(F)cc1)[C@H](C)OC(=O)[C@H](C)NC(=O)c1nccc(OC)c1OCOC(C)=O [compound 174] |  |  |  |  | 80 to 100 | 0 to 80 | 80 to 100 | 0 to 80 |
| CCCOC[C@@H](Cc1ccccc1)[C@H](C)OC(=O)CNC(=O)c1nccc(OC)c1OCOC(C)=O [compound 175] |  |  |  |  |  | 0 to 80 | 80 to 100 | 80 to 100 |
| CCOC[C@H](Oc1ccc(C)cc1)[C@@H](Cc1ccc(F)cc1)[C@H](C)OC(=O)[C@H](C)NC(=O)c1nccc(OC)c1OCOC(C)=O [compound 177] |  |  |  |  | 80 to 100 | 0 to 80 | 80 to 100 | 0 to 80 |
| C=C[C@H](Cc1ccc(C(F)(F)F)cc1)[C@@H](Cc1ccc(F)cc1)[C@H](C)OC(=O)[C@H](COC)NC(=O)c1nccc(OC)c1OC(C)=O [compound 178] |  |  |  |  | 0 to 80 | 0 to 80 | 0 to 80 | 0 to 80 |
| C=C[C@H](Cc1ccc(C(F)(F)F)cc1)[C@@H](Cc1ccc(F)cc1)[C@H](C)OC(=O)[C@H](C)NC(=O)c1nccc(OC)c1OC(C)=O [compound 179] |  |  |  |  | 0 to 80 | 80 to 100 | 80 to 100 |  |
| C=C[C@H](Cc1ccc(C(F)(F)F)cc1)[C@@H](Cc1ccc(F)cc1)[C@H](C)OC(=O)CNC(=O)c1nccc(OC)c1OC(C)=O [compound 180] |  |  |  |  | 0 to 80 |  | 0 to 80 |  |
| CC[C@H](Cc1ccc(C(F)(F)F)cc1)[C@@H](Cc1ccc(F)cc1)[C@H](C)OC(=O)[C@H](COC)NC(=O)c1nccc(OC)c1OC(C)=O [compound 181] |  |  |  |  | 0 to 80 | 0 to 80 | 80 to 100 | 0 to 80 |
| CCC[C@@H](Cc1ccccc1)[C@H](C)OC(=O)[C@H](C)NC(=O)c1nccc(OC)c1OCOC(C)=O [compound 184] |  |  |  |  | 80 to 100 | 80 to 100 | 80 to 100 | 80 to 100 |
| COC(=O)[C@@H](Cc1ccccc1)[C@H](C)OC(=O)[C@H](C)NC(=O)c1nccc(OC)c1OCOC(C)=O [compound 185] |  |  |  |  | 0 to 80 |  | 0 to 80 | 0 to 80 |
| CC[C@H](Cc1ccccc1)[C@@H](Cc1ccc(OC(F)(F)F)cc1)[C@H](C)OC(=O)[C@H](C)NC(=O)c1nccc(OC)c1OCOC(C)=O [compound 187] |  |  |  |  | 0 to 80 | 0 to 80 | 0 to 80 | 0 to 80 |
| CCCC[C@@H]([C@H](C)OC(=O)[C@H](C)NC(=O)c1nccc(OC)c1OCOC(C)=O)[C@H](CC)Oc1ccccc1 [compound 188] |  |  |  |  | 80 to 100 | 80 to 100 | 80 to 100 | 80 to 100 |
| CCCC[C@@H]([C@H](C)OC(=O)[C@H](C)NC(=O)c1nccc(OC)c1OCOC(C)=O)[C@@H](CC)Oc1ccccc1 [compound 189] |  |  |  |  | 80 to 100 | 0 to 80 | 80 to 100 | 80 to 100 |
| CCCC[C@@H]([C@H](C)OC(=O)[C@H](C)NC(=O)c1nccc(OC)c1OC(=O)O)[C@@H](CC)Oc1ccccc1 [compound 190] |  |  |  |  | 80 to 100 | 80 to 100 | 80 to 100 | 80 to 100 |
| CC[C@H](Oc1ccccc1)[C@@H](Cc1ccccc1)[C@H](C)OC(=O)[C@H](C)NC(=O)c1nccc(OC)c1OCOC(C)=O [compound 191] |  |  |  |  | 80 to 100 | 80 to 100 | 80 to 100 | 80 to 100 |
| CC[C@@H](Oc1ccccc1)[C@@H](Cc1ccccc1)[C@H](C)OC(=O)[C@H](C)NC(=O)c1nccc(OC)c1OCOC(C)=O [compound 192] |  |  |  |  | 80 to 100 | 80 to 100 | 80 to 100 | 80 to 100 |
| CC[C@H](Oc1ccccc1)[C@@H](Cc1ccccc1)[C@H](C)OC(=O)[C@H](C)NC(=O)c1nccc(OC)c1OC(C)=O [compound 193] |  |  |  |  | 80 to 100 | 0 to 80 | 80 to 100 | 80 to 100 |
| CC[C@@H](Oc1ccccc1)[C@@H](Cc1ccccc1)[C@H](C)OC(=O)[C@H](C)NC(=O)c1nccc(OC)c1OC(C)=O [compound 194] |  |  |  |  | 80 to 100 | 80 to 100 | 80 to 100 | 0 to 80 |
| COc1ccnc(C(=O)N[C@@H](C)C(=O)O[C@@H](C)[C@H](Cc2ccccc2)c2ccccc2)c1OCOC(C)=O [compound 195] |  |  |  |  | 80 to 100 | 80 to 100 | 80 to 100 | 80 to 100 |
| COc1ccnc(C(=O)N[C@@H](C)C(=O)O[C@@H](C)[C@H](Cc2ccccc2)c2ccccc2)c1OC(C)=O [compound 196] |  |  |  |  | 80 to 100 | 80 to 100 | 80 to 100 | 0 to 80 |
| CCCC[C@H](c1ccccc1)[C@H](C)OC(=O)[C@H](C)NC(=O)c1nccc(OC)c1OC(C)=O [compound 197] |  |  |  |  | 80 to 100 | 80 to 100 | 80 to 100 | 80 to 100 |
| CCCC[C@H](c1ccccc1)[C@H](C)OC(=O)[C@H](C)NC(=O)c1nccc(OC)c1OC(=O)C(C)C [compound 198] |  |  |  |  | 80 to 100 | 80 to 100 | 0 to 80 | 0 to 80 |
| CCCC[C@H](c1ccccc1)[C@H](C)OC(=O)[C@H](C)NC(=O)c1nccc(OC)c1OCOC(C)=O [compound 199] |  |  |  |  | 80 to 100 | 80 to 100 | 80 to 100 | 80 to 100 |
